Assay results: patent US10617140B2, “Iron-fortified food composition” (NESTEC S.A., priority 2015, dated 2020)

Assay: Fortification of water: iron content on storage, ICP-AES (Example 7)
Type: physicochemical
Method: Processed water enriched with 20-30 ppm of sodium and potassium (600 mL) was iron fortified by the addition of different iron ingredients as reported in Table 10. The amounts were chosen to provide approximately 2.1 mg of iron per litre of water. The water was stored in an oven at 40° C. for 18 weeks. The iron content was measured for each sample through ICP-AES.

Ferrous sulfate
Iron content, Week 1 (processed water fortified at approx. 2.1 mg iron per litre, stored at 40° C., ICP-AES, week 1): 0 (Precipitate) | Iron content, Week 18 (processed water fortified at approx. 2.1 mg iron per litre, stored at 40° C., ICP-AES, week 18): 0 (Precipitate) | Behaviour in fortified water (precipitation / remaining in solution) (processed water stored at 40° C., up to 18 weeks): precipitates almost instantaneously
